According to US8318762B2, “Pyrazolospiroketone acetyl-CoA carboxylase inhibitors” (Pfizer Inc., priority 2008, dated 2012):

These molecules were tested against T1, recombinant human ACC2 (Homo sapiens, UniProt O00763) (assay: Measurement of human ACC2 inhibition (recombinant hACC2 Transcreener ADP detection FP assay)). Conditions: recombinant hACC2 transcreener assay; read-out: rhACC2 IC50.
T1 construct: a full length Cytomax clone of ACC2 was purchased from Cambridge Bioscience Limited; made in house; host or cells: CHO cells (tetracycline induction, pcDNA5 FRT TO-TOPO); purified on a Softlink Soft Release Avidin column
T1 sequence (O00763 whole entry): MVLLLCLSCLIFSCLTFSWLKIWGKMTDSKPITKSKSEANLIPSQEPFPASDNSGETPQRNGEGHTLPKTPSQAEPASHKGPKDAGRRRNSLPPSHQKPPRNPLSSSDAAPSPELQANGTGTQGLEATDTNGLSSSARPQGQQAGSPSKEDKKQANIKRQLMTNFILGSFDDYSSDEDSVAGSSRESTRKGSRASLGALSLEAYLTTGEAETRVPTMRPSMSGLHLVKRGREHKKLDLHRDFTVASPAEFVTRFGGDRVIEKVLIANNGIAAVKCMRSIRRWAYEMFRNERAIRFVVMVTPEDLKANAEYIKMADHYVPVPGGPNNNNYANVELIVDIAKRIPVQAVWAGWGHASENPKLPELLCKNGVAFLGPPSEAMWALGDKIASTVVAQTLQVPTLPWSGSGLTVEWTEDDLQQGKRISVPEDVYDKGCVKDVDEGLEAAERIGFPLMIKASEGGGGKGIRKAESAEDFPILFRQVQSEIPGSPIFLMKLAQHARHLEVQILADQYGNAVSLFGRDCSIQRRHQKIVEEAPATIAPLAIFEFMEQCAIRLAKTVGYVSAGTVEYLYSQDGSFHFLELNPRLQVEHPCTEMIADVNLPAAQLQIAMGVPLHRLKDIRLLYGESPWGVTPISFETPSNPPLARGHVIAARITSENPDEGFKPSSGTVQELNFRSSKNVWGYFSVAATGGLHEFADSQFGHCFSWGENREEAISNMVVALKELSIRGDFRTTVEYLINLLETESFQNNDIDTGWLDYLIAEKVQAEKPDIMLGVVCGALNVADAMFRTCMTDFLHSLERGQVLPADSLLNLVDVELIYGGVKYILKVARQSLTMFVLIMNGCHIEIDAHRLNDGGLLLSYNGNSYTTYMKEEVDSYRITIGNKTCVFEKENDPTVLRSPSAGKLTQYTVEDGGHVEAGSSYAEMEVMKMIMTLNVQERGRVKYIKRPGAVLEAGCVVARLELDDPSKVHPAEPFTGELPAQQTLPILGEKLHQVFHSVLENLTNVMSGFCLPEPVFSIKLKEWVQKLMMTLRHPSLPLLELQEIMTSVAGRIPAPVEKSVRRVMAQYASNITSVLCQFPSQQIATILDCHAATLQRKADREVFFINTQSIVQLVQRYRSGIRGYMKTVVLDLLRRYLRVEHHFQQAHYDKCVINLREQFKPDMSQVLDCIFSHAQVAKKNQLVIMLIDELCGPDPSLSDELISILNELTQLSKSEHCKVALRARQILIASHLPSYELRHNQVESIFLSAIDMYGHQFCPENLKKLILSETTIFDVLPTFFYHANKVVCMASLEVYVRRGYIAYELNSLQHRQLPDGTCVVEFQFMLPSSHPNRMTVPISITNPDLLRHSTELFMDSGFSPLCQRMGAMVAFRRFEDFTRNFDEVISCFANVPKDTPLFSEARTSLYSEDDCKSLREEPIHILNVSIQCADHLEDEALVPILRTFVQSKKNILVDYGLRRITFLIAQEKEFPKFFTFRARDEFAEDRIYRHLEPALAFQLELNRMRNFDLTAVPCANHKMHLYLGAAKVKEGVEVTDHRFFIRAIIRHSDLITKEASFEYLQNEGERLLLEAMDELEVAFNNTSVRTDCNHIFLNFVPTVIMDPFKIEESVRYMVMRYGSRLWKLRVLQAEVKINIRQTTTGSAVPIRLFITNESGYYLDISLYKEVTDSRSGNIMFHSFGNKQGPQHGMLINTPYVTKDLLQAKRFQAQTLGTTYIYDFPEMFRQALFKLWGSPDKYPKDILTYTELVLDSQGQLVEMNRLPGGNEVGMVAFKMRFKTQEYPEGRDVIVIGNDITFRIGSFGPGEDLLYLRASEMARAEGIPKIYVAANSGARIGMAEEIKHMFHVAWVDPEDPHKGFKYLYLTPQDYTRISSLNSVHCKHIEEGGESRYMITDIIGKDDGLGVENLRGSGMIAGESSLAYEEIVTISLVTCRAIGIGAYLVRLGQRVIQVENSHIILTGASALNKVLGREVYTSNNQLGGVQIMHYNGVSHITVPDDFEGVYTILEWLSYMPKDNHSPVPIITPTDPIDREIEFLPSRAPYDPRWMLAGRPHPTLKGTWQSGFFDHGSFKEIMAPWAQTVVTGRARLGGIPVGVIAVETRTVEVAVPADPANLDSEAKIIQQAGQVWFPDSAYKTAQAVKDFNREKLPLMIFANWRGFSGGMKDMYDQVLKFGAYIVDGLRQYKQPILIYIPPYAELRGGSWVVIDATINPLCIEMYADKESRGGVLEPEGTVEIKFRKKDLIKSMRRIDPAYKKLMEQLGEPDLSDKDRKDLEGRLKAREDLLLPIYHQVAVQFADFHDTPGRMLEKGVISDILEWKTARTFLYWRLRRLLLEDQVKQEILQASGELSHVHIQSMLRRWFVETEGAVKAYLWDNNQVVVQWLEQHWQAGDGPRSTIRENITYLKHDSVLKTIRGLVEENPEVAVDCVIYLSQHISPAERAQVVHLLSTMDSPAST
Format: biochemical
Procedure: [3] Measurement of human ACC2 inhibition. Human ACC2 inhibition was measured using purified recombinant human ACC2 (hrACC2). […] The ACC2 was expressed in CHO cells by tetracycline induction and harvested in 5 liters of DMEM/F12 with glutamine, biotin, hygromycin and blasticidin with 1 μg/mL tetracycline (Invitrogen, Carlsbad, Calif.). The conditioned medium containing ACC2 was then applied to a Softlink Soft Release Avidin column (Promega, Madison, Wis.) and eluted with 5 mM biotin. […] The purified ACC2 was dialyzed in 50 mM Tris, 200 mM NaCl, 4 mM DTT, 2 mM EDTA, and 5% glycerol. […] The final conditions for the assay were 50 mM HEPES, pH7.5, 5 mM MgCl2, 5 mM tripotassium citrate, 2 mM DTT, 0.5 mg/mL BSA, 30 μM acetyl-CoA, 50 μM ATP, and 8 mM KHCO3. Typically, a 10 μl reaction was run for 1 hour at room temperature, and 10 μl of Transcreener stop and detect buffer was added and incubated for an additional 1 hour.

SMILES | IC50 [nM]
Cc1n[nH]c2ccc(C(=O)N3CCC4(CC3)CC(=O)c3nn(C5CCC5)cc3O4)cc12 [1.089] | 22
Cc1nc2cc(C(=O)N3CCC4(CC3)CC(=O)c3nn(C(C)(C)C)cc3O4)ccc2s1 [14.001] | 7
Cc1n[nH]c2c(C)cc(C(=O)N3CCC4(CC3)CC(=O)c3nn(C5CCC5)cc3O4)cc12 [1.010] | 4
CCn1nc2c(c1C)OC1(CCN(C(=O)c3ccc4sc(C)nc4c3)CC1)CC2=O [14.002] | 176
Cc1n[nH]c2c(C)cc(C(=O)N3CCC4(CC3)CC(=O)c3nn(C(C)(C)C)c(C)c3O4)cc12 [1.011] | 15
CC(C)n1cc2c(n1)C(=O)CC1(CCN(C(=O)c3ccc4snc(N)c4c3)CC1)O2 [7.001] | 16
CCn1nc2c(c1C)OC1(CCN(C(=O)c3ccc4ccccc4c3)CC1)CC2=O [6.007] | 40
CC(C)(C)n1cc2c(n1)C(=O)CC1(CCN(C(=O)c3ccc4ncccc4c3)CC1)O2 [15.002] | 11
CCn1nc2c(c1C)OC1(CCN(C(=O)c3ccc4ccn(C)c4c3)CC1)CC2=O [18.002] | 33
CCOc1cc(C(=O)N2CCC3(CC2)CC(=O)c2nn(C(C)C)cc2O3)cc2c(C)n[nH]c12 [1.120] | 6
Cc1cc(C(=O)N2CCC3(CC2)CC(=O)c2nn(C(C)C)c(C)c2O3)cc2cn[nH]c12 [1.040] | 15
CCc1cc(C(=O)N2CCC3(CC2)CC(=O)c2nn(CC)c(C)c2O3)cc2c(C)n[nH]c12 [1.113] | 10
CC(C)(C)n1cc2c(n1)C(=O)CC1(CCN(C(=O)c3ccc4[nH]c(=O)oc4c3)CC1)O2 [20.001] | 28
CCn1nc2c(c1C)OC1(CCN(C(=O)c3ccc4nc(C)[nH]c4c3)CC1)CC2=O [3.013] | 211
COc1cc(C(=O)N2CCC3(CC2)CC(=O)c2nn(C(C)(C)C)cc2O3)cc2c(C)n[nH]c12 [1.076] | 2
CCn1nc2c(c1C)OC1(CCN(C(=O)c3ccc4sncc4c3)CC1)CC2=O [7.005] | 36
CC(C)n1cc2c(n1)C(=O)CC1(CCN(C(=O)c3ccc4cn(C)nc4c3)CC1)O2 [5.001] | 675
Cc1c2c(nn1C)C(=O)CC1(CCN(C(=O)c3cc(Cl)c4[nH]ncc4c3)CC1)O2 [1.063] | 137
Cc1cc(C(=O)N2CCC3(CC2)CC(=O)c2nn(C(C)C)cc2O3)cc2ncn(C)c12 [8.002] | 59
Cc1noc2cc(C(=O)N3CCC4(CC3)CC(=O)c3nn(C(C)(C)C)cc3O4)ccc12 [23.002] | 55
Cc1n[nH]c2c(C)cc(C(=O)N3CCC4(CC3)CC(=O)c3nn(C5CCOC5)cc3O4)cc12 (stereo not drawn) [1.016] | 22
CCc1cc(C(=O)N2CCC3(CC2)CC(=O)c2nn(CC)cc2O3)cc2c(C)n[nH]c12 [1.100] | 36
CCn1nc2c(c1C)OC1(CCN(C(=O)c3cc(OC)c4[nH]nc(C)c4c3)CC1)CC2=O [1.077] | 15
COc1cc(C(=O)N2CCC3(CC2)CC(=O)c2nn(C(C)(C)C)cc2O3)cc2nc(C)oc12 [9.003] | 29
CCn1nc2c(c1C)OC1(CCN(C(=O)c3ccc4nn(C)cc4c3)CC1)CC2=O [25.004] | 122

SMILES | IC50 [nM]
CC(C)(C)n1cc2c(n1)C(=O)CC1(CCN(C(=O)c3ccc4ocnc4c3)CC1)O2 [9.002] | 291
CCn1nc2c(c1C)OC1(CCN(C(=O)c3ccc4[nH]ncc4c3)CC1)CC2=O [1.068] | 84
CC(C)n1cc2c(n1)C(=O)CC1(CCN(C(=O)c3ccc4cnoc4c3)CC1)O2 [23.004] | > 1000
COc1cccc2cc(C(=O)N3CCC4(CC3)CC(=O)c3nn(C(C)(C)C)cc3O4)ccc12 [6.006] | 7
Cn1ncc2ccc(C(=O)N3CCC4(CC3)CC(=O)c3nn(C(C)(C)C)cc3O4)cc21 [2.013] | 19
COc1cc(C(=O)N2CCC3(CC2)CC(=O)c2nn(C(C)(C)C)cc2O3)cc2[nH]ncc12 [2.023] | 3
CCn1nc2c(c1C)OC1(CCN(C(=O)c3ccc4occc4c3)CC1)CC2=O [17.002] | 283
COc1cc(C(=O)N2CCC3(CC2)CC(=O)c2nn(C(C)C)c(C)c2O3)cc2cn[nH]c12 [1.055] | 10
Cc1c2c(nn1C(C)(C)C)C(=O)CC1(CCN(C(=O)c3ccc4[nH]ncc4c3)CC1)O2 [1.072] | 61
Cc1cc(C(=O)N2CCC3(CC2)CC(=O)c2nn(C(C)C)c(C)c2O3)cc2[nH]cnc12 [3.017] | 14
Cc1n[nH]c2ccc(C(=O)N3CCC4(CC3)CC(=O)c3nn(C(C)C)cc3O4)cc12 [1.081] | 10
CC(C)(C)n1cc2c(n1)C(=O)CC1(CCN(C(=O)c3ccc4cn[nH]c4c3F)CC1)O2 [2.017] | 52
CCn1nc2c(c1C)OC1(CCN(C(=O)c3ccc4c(c3)CCC(=O)N4)CC1)CC2=O [13.001] | 421
Cc1n[nH]c2ccc(C(=O)N3CCC4(CC3)CC(=O)c3nn(C)cc3O4)cc12 [1.085] | 403
CC(C)n1cc2c(n1)C(=O)CC1(CCN(C(=O)c3ccc4[nH]ncc4c3)CC1)O2 [1.067] | 50
CCCn1cc2c(n1)C(=O)CC1(CCN(C(=O)c3ccc4[nH]nc(C)c4c3)CC1)O2 [1.082] | 53
CCC(C)n1cc2c(n1)C(=O)CC1(CCN(C(=O)c3ccc4[nH]ncc4c3)CC1)O2 (stereo not drawn) [1.142] | 20
CCc1n[nH]c2c(C)cc(C(=O)N3CCC4(CC3)CC(=O)c3nn(CC)cc3O4)cc12 [1.019] | 18
Cc1c2c(nn1C(C)C)C(=O)CC1(CCN(C(=O)c3ccc4[nH]ncc4c3)CC1)O2 [1.073] | 35
CCc1n[nH]c2c(OC)cc(C(=O)N3CCC4(CC3)CC(=O)c3nn(CC)cc3O4)cc12 [1.046] | 29
Cn1ccc2ccc(C(=O)N3CCC4(CC3)CC(=O)c3nn(C(C)(C)C)cc3O4)cc21 [18.001] | 3
CCc1n[nH]c2c(OC)cc(C(=O)N3CCC4(CC3)CC(=O)c3nn(C(C)C)cc3O4)cc12 [1.044] | 5
CCn1nc2c(c1C)OC1(CCN(C(=O)c3ccc4c(C)n[nH]c4c3)CC1)CC2=O [2.025] | 44
CCn1nc2c(c1C)OC1(CCN(C(=O)c3cc(C)c4sncc4c3)CC1)CC2=O [7.008] | 93
CCn1nc2c(c1C)OC1(CCN(C(=O)c3cc(OC)c4[nH]ncc4c3)CC1)CC2=O [1.052] | 33

SMILES | IC50 [nM]
CCc1cc(C(=O)N2CCC3(CC2)CC(=O)c2nn(C(C)(C)C)cc2O3)cc2cn[nH]c12 [1.060] | 6
CCn1nc2c(c1C)OC1(CCN(C(=O)c3ccc4c(c3)nc(O)n4C)CC1)CC2=O [8.011] | 186
CCc1c2c(nn1C)C(=O)CC1(CCN(C(=O)c3cc(C)c4[nH]nc(C)c4c3)CC1)O2 [1.007] | 189
COc1cc(-n2nc3c(c2C)OC2(CCN(C(=O)c4cc(C)c5[nH]ncc5c4)CC2)CC3=O)ccc1C#N [1.028] | 127
CC(C)(C)n1cc2c(n1)C(=O)CC1(CCN(C(=O)c3cc(F)c4nc[nH]c4c3)CC1)O2 [3.022] | 14
CCOc1cc(C(=O)N2CCC3(CC2)CC(=O)c2nn(CC)c(C)c2O3)cc2c(CC)n[nH]c12 [1.018] | 34
COc1cc(C(=O)N2CCC3(CC2)CC(=O)c2nn(CC(C)C)c(C)c2O3)cc2cn[nH]c12 [1.131] | 19
Cc1cc(C(=O)N2CCC3(CC2)CC(=O)c2nn(C4CCCC4)cc2O3)cc2c(Cl)n[nH]c12 [1.107] | 3
CCn1nc2c(c1C)OC1(CCN(C(=O)c3ccc4ncsc4c3)CC1)CC2=O [10.001] | 285
CCCn1cc2c(n1)C(=O)CC1(CCN(C(=O)c3cc(C)c4[nH]nc(C)c4c3)CC1)O2 [1.004] | 20
Cn1ncc2cc(C(=O)N3CCC4(CC3)CC(=O)c3nn(C(C)(C)C)cc3O4)ccc21 [1.145] | 26
Cc1n[nH]c2ccc(C(=O)N3CCC4(CC3)CC(=O)c3nn(C(C)(C)C)c(C)c3O4)cc12 [1.090] | 23
CC(C)(C)n1cc2c(n1)C(=O)CC1(CCN(C(=O)c3ccc4snc(N)c4c3)CC1)O2 [7.002] | 3
CCn1nc2c(c1C)OC1(CCN(C(=O)c3ccc4c(c3)ncn4C)CC1)CC2=O [8.005] | 159
Cc1nc2c(C)cc(C(=O)N3CCC4(CC3)CC(=O)c3nn(C(C)C)cc3O4)cc2[nH]1 [3.001] | 28
Cc1n[nH]c2c(C)cc(C(=O)N3CCC4(CC3)CC(=O)c3nn(C5CCCC5)cc3O4)cc12 [1.009] | 4
CCc1n[nH]c2c(OC)cc(C(=O)N3CCC4(CC3)CC(=O)c3nn(C5CCCCC5)cc3O4)cc12 [1.048] | 18
COc1cc(C(=O)N2CCC3(CC2)CC(=O)c2nn(CC(C)C)c(C)c2O3)cc2c(C)n[nH]c12 [1.132] | 13
Cn1c(O)nc2cc(C(=O)N3CCC4(CC3)CC(=O)c3nn(C(C)(C)C)cc3O4)ccc21 [8.010] | 18
CC(C)n1cc2c(n1)C(=O)CC1(CCN(C(=O)c3ccc4ocnc4c3)CC1)O2 [9.001] | 300
CC(C)(C)n1cc2c(n1)C(=O)CC1(CCN(C(=O)c3ccc4c(c3)NC(=O)CO4)CC1)O2 [12.005] | 45
CCn1nc2c(c1C)OC1(CCN(C(=O)c3ccc4c(cnn4C)c3)CC1)CC2=O [1.112] | 79
CC(C)n1cc2c(n1)C(=O)CC1(CCN(C(=O)c3ccc4oncc4c3)CC1)O2 [22.001] | > 1000
CCc1n[nH]c2ccc(C(=O)N3CCC4(CC3)CC(=O)c3nn(CC)cc3O4)cc12 [1.093] | 18
CCOc1cc(C(=O)N2CCC3(CC2)CC(=O)c2nn(C(C)C)c(C)c2O3)cc2cn[nH]c12 [1.122] | 5
